Measurements published in patent US20120034193A1, “TREATMENT OF NEUROTROPHIC FACTOR MEDIATED DISORDERS” (priority 2009, published 2012).
Where a name gives a salt, the structure may show the parent alone.

Assays:
BDNF mRNA = BDNF mRNA expression in rat cortical neurones under basal conditions (rt RT-PCR); format: cell-based; details: 0.5 mM
Protocol: (§1) Rat cortical neurones were cultured by modification of a method previously described (Singer, et al., Neuroscience Letters, 1996, 212, pp. 13-16). Twelve days after the start of culturing, sarsasapogenin (30 nM), smilagenin (30 nM), 4-methylcatechol (0.5 mM), an inducer of NGF and BDNF release (Saporito et al., Experimental Neurology., 1993, 123, pp. 295-302; Nitta et al., Journal of Pharmacology and Experimental Therapeutics, 1999, 291, pp. 1276-1283) or vehicle (dimethyl sulfoxide, DMSO, 0.25%) were added for 1, 3 or 6 h. After incubation the total messenger ribonucleic acid (mRNA) was quantified using real time reverse transcription-polymerase chain reaction (rt RT-PCR).

C57b1/6 RJ mice = experiment: Sciatic nerve crush model; format: in vivo, Mouse; details: 10 μg/kg/day i.p.; nerve crush alone 109.10 ± 2.65
Text: The sciatic nerve crush model is a well characterised reversible model for motor neurone disease and post-traumatic nerve injuries (McMahon and Priestley, Current Opinion in Neurobiology, 1995, 5, pp. 616-624). The nerve damage is produced by mechanical pressure using haemostatic forceps, applied twice, 5 mm proximal to the trifurcation of the right sciatic nerve of these mice. […] The loss of nerve function recovers progressively over a 4-5 week period after the mechanical insult.
4-Methylcatechol (10 μg/kg/day, i.p.) was used as a positive control (Kaechi et al., Journal of Phamacology and Experimental Therapeutics, 1995, 272, pp. 1300-1304).
C57b1/6 RJ mice were anaesthetised with ketamine chlorhydrate (60 mg/kg, i.p.). The sciatic nerve was surgically exposed at mid thigh level and crushed at 5 mm proximal to the trifurcation of the sciatic nerve. The nerve was crushed twice for 30 s with a haemostatic forceps with a 90-degree rotation between each crush. […] The loss of nerve function recovered progressively over a 4-5 week period after mechanical insult. Electromyographic recordings were assessed as described above.

trkB mRNA = trkB mRNA expression in rat cortical neurones under basal conditions (rt RT-PCR); format: cell-based; details: 0.5 mM
Protocol: as §1

pmn mice = details: literature; CNTF i.p. CNTF-secreting cells, Xaliproden oral from birth, CGP 3466B oral at onset; cited from earlier work
[1] = tested on: rat primary cortical neurones; experiment: Inhibition of induced neurite outgrowth by K252a or PD98059; format: cell-based
Protocol: (§2) Cortical neurones were cultured as detailed above. Neurones were exposed to vehicle (DMSO, 0.25%) or K252a (100 nM) for 1 h. After 1 h, vehicle, sarsasapogenin, smilagenin (30 nM) or BDNF (1.85 nM) was added to the medium in the maintained presence of K252a. Following 24 h exposure to sarsasapogenin or smilagenin (30 nM), vehicle (DMSO, 0.25%) or BDNF (1.85 nM), the neurones were washed using phosphate-buffered saline (PBS) and fixed in glutaraldehyde (2.5%) in PBS. Photographs of 40-60 neurones expressing neurites were taken with a camera fixed on a microscope (objective ×20, Nikon). The neurite length was measured by an analysis of the photographs.
as §2, with “PD98059 (10 μM)” for “K252a (100 nM)”, “vehicle,” for “vehicle, sarsasapogenin,”, “PD98059.” for “K252a.”, “to” for “to sarsasapogenin or”, “PBS” for “phosphate-buffered saline (PBS)”

[2] = tested on: Rat spinal motor neurones; experiment: Neuronal survival and neurite outgrowth in spinal motor neurones; format: cell-based; details: 3 days
Protocol: Rat spinal motor neurones were prepared according to a previously described method (Martinou et al, Neuron, 8, 737-744, 1992). Following 3 days of culturing with sarsasapogenin, smilagenin, vehicle (DMSO, 0.25%), Xaliproden, or BDNF, spinal cord motor neurones were washed twice in PBS, fixed in a cold solution of alcohol (95%) and acetic acid (5%) for 5 min and then rinsed 3 times in PBS. Neurones were stained using a monoclonal antibody anti β-tubulin and an anti mouse Immunoglobulin G. These antibodies stained neurone cell bodies (quantifying the neuroprotective effect) and neurites (quantifying the neurotrophic effect). The cell nuclei were stained by a fluorescent marker. After 1 h of incubation, cells were washed 3 times in PBS. […] A series of pictures were taken using a camera controlled by computer software. All the images were taken under the same conditions. Analyses of the number of cells labelled with anti β-tubulin antibodies and of the total number of cells (number of stained nuclei) were performed using LUCIA 6.0 software.

[3] = tested on: rat primary cortical neurones; experiment: Pre-treatment against glutamate-induced damage (LDH) in cortical neurones; format: cell-based; details: 24 h before and 24 h after glutamate 100 μM 10 min
Protocol: Exposure of rat primary cortical neurones to glutamate increases lactate dehydrogenase (LDH) activity measured 24 h after glutamate exposure, indicating significant neuronal damage. Rat cortical neurones were cultured by modification of a method previously described (Singer, et al., Neuroscience Letters, 1996, 212, pp. 13-16). On day 10 of culture, the medium was changed to a serum-free defined medium. On day 12, the cultures were washed and placed for 24 h in fresh medium containing test compound or vehicle (DMSO, 0.25%). On day 13 neurones were exposed to glutamate (100 μM; 10 min) at 37° C. The cultures were then washed with, and placed in, fresh medium supplemented with test compound or vehicle for a further 24 h before LDH was measured. Neuronal damage was assessed by measuring LDH activity in the media at 24 h after glutamate exposure.

Rat cortical neurones [4] = experiment: Neuronal survival and neurite outgrowth of cortical neurones cultured in the absence of serum; format: cell-based; details: 3 nM, one day, no serum
Protocol: Rat cortical neurones were cultured following the method described above.
The test compounds were added for 24 h.
Rat cortical neurones were exposed to sarsasapogenin, smilagenin (30 nM) or vehicle (DMSO, 0.25%) in the absence FBS or FCS for one day. Cortical neurones were stained using a monoclonal antibody anti β-tubulin diluted and an anti mouse Immunoglobulin G diluted. These antibodies stained neurone cell bodies (quantifying the neuroprotective effect) and neurites (quantifying the neurotrophic effect). An epifluorecence microscope (magnification ×20) with a camera took 2 pictures per well (10 pictures per condition). Analyses of the number of cells labelled with anti β-tubulin antibodies and of the total number of cells was performed using LUCIA 6.0 software.

Rat cortical neurones [5] = experiment: Neuritogenesis in cortical neurones; format: cell-based; details: 3 nM, 24 h
Protocol: Rat cortical neurones were cultured by modification of a previously described method (Singer, et al., Neuroscience Letters, 1996, 212, pp. 13-16). Cells were cultured with sarsasapogenin, smilagenin, vehicle (DMSO 0.25%), GDNF, BDNF or NGF for 24 h. For each group, 15 pictures showing neurones displaying neurites were selected at random in each field, and for each neurone the longest neurite was measured. The neurite number was measured by counting the number of neurones displaying neurites, the number of neurones not displaying neurites and the number of total neurones in each field. Six fields per well were examined.
The results are shown in Table 15 below, expressed as the number of neurones with neurites per field as a percentage of the total number of neurones per field.

[6] = tested on: Rat spinal motor neurones; experiment: Reversal of glutamate-induced damage in spinal motor neurones; format: cell-based; details: 3 nM for 48 h after glutamate 4 μM 10 min
Protocol: The rat spinal motor neurones were prepared as detailed above. On day 10, the medium was removed and the cultures exposed to glutamate (4 μM) for 10 min at 37° C. in 5% CO2/95% air atmosphere in defined medium. After the glutamate exposure, cultures were washed with DMEM at 37° C. then placed in fresh culture medium containing sarsasapogenin, smilagenin, vehicle or BDNF. After 48 h, the extent of motor neurone damage was determined as detailed above. This Example develops the work reported in Example 8 of PCT patent application No. WO-A-03/082893.

For `Cc1ccc(O)c(O)c1` [4-Methylcatechol, reference compound], the “BDNF mRNA, % increase above control” value (BDNF mRNA; 1 h) was “No increase”, the “BDNF mRNA, % increase above control” value (BDNF mRNA; 3 h) was “No increase” and the “BDNF mRNA, % increase above control” value (BDNF mRNA; 6 h) was 92%. The “Degenerated fibres (% of control)” value (C57b1/6 RJ mice) was −7.48 ± 1.62 % of control, the “trkB mRNA, % increase above control” value (trkB mRNA; 1 h) was “No increase” and the “trkB mRNA, % increase above control” value (trkB mRNA; 3 h) was “No increase”. The “trkB mRNA, % increase above control” value (trkB mRNA; 6 h) was “No increase”.

For `Cc1c(C)c2c(c(C)c1O)CC[C@@](C)(C(=O)N1CCN(c3ccc(N=C(N)c4cccs4)cc3)CC1)O2` [BN 80933], the “Increase of survival time / lifespan of pmn mice” value (pmn mice) is listed as 40%.

For `C#CCN(C)CC1=Cc2ccccc2Oc2ccccc21.O=C(O)/C=C\C(=O)O` [CGP 3466B], the “Increase of survival time / lifespan of pmn mice” value (pmn mice) is given as 57%.

For `COC(=O)[C@@]1(O)C[C@H]2O[C@]1(C)n1c3ccccc3c3c4c(c5c6ccccc6n2c5c31)C(=O)NC4` [K252a, reference compound], the “Neurite length (% of control)” value ([1]; K252a 100 nM alone (control with K252a)) was 95.22 ± 3.10 % of control.

For `COc1cccc(-c2cc(=O)c3ccccc3o2)c1N` [PD98059, reference compound], the “Neurite length (% of control)” value ([1]; PD98059 10 μM alone (control with PD98059)) was 96.08 ± 2.47 % of control.

For `FC(F)(F)c1cccc(C2=CCN(CCc3ccc4ccccc4c3)CC2)c1` [Xaliproden, 1-[2-(naphth-2-yl)ethyl]-4-(3-trifluoromethylphenyl)-1,2,5,6-tetra-hydropyri-dine hydrochloride, reference compound], the “Increase of survival time / lifespan of pmn mice” value (pmn mice) is given as about 50%, the “Neurite outgrowth (% of control)” value ([2]; 30 nM) is given as 137.57 ± 11.69 % of control and the “Neuronal survival (% of control)” value ([2]; 30 nM) is given as 110.95 ± 2.14 % of control. The “Neurite outgrowth (% of control)” value ([2]; 100 nM) was 137.55 ± 6.76 % of control, the “Neuronal survival (% of control)” value ([2]; 100 nM) was 111.18 ± 2.85 % of control and the “Neurite outgrowth (% of control)” value ([2]; 300 nM) was 131.22 ± 7.93 % of control. The “Neuronal survival (% of control)” value ([2]; 300 nM) was 109.47 ± 3.34 % of control.

With `C[C@@H]1CC[C@@]2(OC1)O[C@H]1C[C@H]3[C@@H]4CC=C5C[C@@H](O)CC[C@]5(C)[C@H]4CC[C@]3(C)[C@H]1[C@@H]2C` [diosgenin, reference compound] the “Neuronal survival (% of control)” value ([3]; 3 nM) was 69.43 ± 1.76 % of control, the “Neuronal survival (% of control)” value ([3]; 10 nM) was 66.51 ± 5.13 % of control and the “Neuronal survival (% of control)” value ([3]; 30 nM) was 68.98 ± 5.39 % of control. For the same molecule, the “Neuronal survival (% of control)” value ([3]; 100 nM) was 70.95 ± 5.03 % of control and the “Neuronal survival (% of control)” value ([3]; 300 nM) was 75.02 ± 2.68 % of control.

B1: BDNF: brain-derived neurotrophic factor (protein, UniProt P23560 19-247, looked up)
Neurotrophic factor BDNF …: APMKEANIRGQGGLAYPGVRTHGTLESVNGPKAGSRGLTSLADTFEHVIEELLDEDQKVRPNEENNKDADLYTSRVMLSSQVPLEPPLLFLLEEYKNYLDAANMSMRVRRHSDPARRGELSVCDSISEWVTAADKKTAVDMSGGTVTVLEKVPVSKGQLKQYFYETKCNPMGYTKEGCRGIDKRHWNSQCRTTQSYVRALTMDSKKRIGWRFIRIDTSCVCTLTIKRGR
For B1, the “Neurite outgrowth (% of control)” value (Rat cortical neurones [4]) was 146.84 ± 9.27 % of control, the “Neuronal survival (% of control)” value (Rat cortical neurones [4]) was 162.75 ± 5.61 % of control and the “Neurite length (% of control)” value (Rat cortical neurones [5]) was 162.34 ± 5.91 % of control. For the same molecule, the “Neurones displaying neurites (%)” value (Rat cortical neurones [5]; control 39.35 ± 2.06) was 48.06 ± 2.17 %, the “Neuronal survival (% of control)” value [6] was 106.60 ± 6.14 % of control and the “Neurite outgrowth (% of control)” value ([2]; 1.85 nM) was 176.91 ± 7.25 % of control. The “Neuronal survival (% of control)” value ([2]; 1.85 nM) was 126.15 ± 1.60 % of control, the “Neurite length (% of control)” value ([1]; 1.85 nM, 24 h, no inhibitor) was 125.30 ± 5.80^++++ % of control and the “Neurite length (% of control)” value ([1]; 1.85 nM, 24 h, with K252a (100 nM)) was 87.31 ± 2.20 % of control. The “Neurite length (% of control)” value ([1]; 1.85 nM, 24 h, with PD98059 (10 μM)) was 99.07 ± 5.15 % of control.

B2: CNTF: ciliary neurotrophic factor; i.p. administration of CNTF-secreting cells (protein, UniProt P26441 1-200, looked up)
Ciliary neurotrophic factor: MAFTEHSPLTPHRRDLCSRSIWLARKIRSDLTALTESYVKHQGLNKNINLDSADGMPVASTDQWSELTEAERLQENLQAYRTFHVLLARLLEDQQVHFTPTEGDFHQAIHTLLLQVAAFAYQIEELMILLEYKIPRNEADGMPINVGDGGLFEKKLWGLKVLQELSQWTVRSIHDLRFISSHQTGIPARGSHYIANNKKM
modifications: secreted by cells
For B2, the “Increase of survival time / lifespan of pmn mice” value (pmn mice) is given as 40%.
